For one test, the target named is T1, wildtype Kras / hSOS1 (Homo sapiens, UniProt P01116).
T1 construct: made in house; host or cells: E. coli BL21 (DE3)
The test can be described thus: HTRF assay, wildtype Kras / SOS1 interaction. The conditions noted are these: read-out: IC50 against wildtype Kras. The class given is binding. The method in brief:
(§1)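 GST-tagged K-Ras (mutant or wildtype) with anti-GST-Eu donor was mixed with His-hSOS1 and anti-6His-XL665 acceptor in HEPES pH 7.4 buffer with NaCl, DTT, BSA and Igepal. After ≥10 min, HTRF was read (ex 337 nm, em 620/665 nm); 665/620 ratios gave IC50 from duplicate dilution series.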

The target in test [1] is GST-tagged K-Ras mutant / His-tagged hSOS1 (Homo sapiens, UniProt P01116). Kind of test: HTRF assay, K-Ras mutant / SOS1 interaction. The class given is binding. The conditions noted are these: read-out: IC50 against mutant Kras. In a few lines: as §1
[2] abbreviates: compound nos. 102-196, general methodology of example 5.
[3] abbreviates: compound nos. 201-213, general methodology of example 5.

Molecules are shown by their SMILES. Read-outs that look alike come from different tables or passages of the source.

T1 sequence (P01116 1-188 isoform P01116-2): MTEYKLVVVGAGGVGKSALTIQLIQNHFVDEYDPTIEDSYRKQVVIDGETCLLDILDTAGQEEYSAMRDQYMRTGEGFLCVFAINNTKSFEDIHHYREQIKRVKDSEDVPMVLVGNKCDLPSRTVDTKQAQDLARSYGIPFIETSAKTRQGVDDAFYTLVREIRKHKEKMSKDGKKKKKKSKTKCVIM
Sequence of GST-tagged K-Ras mutant / His-tagged hSOS1 (P01116 whole entry G12D, form open): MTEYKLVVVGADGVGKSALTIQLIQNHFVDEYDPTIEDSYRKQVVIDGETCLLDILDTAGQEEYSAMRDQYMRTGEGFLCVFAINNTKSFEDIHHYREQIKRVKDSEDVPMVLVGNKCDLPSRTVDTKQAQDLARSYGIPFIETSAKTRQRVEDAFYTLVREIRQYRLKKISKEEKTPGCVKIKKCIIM

On to `Nc1nc2c(-c3c(Cl)cc4c(N5CCOCC(F)(F)C5)nc(OCC56CCCN5CCC6)nc4c3F)ccc(F)c2s1` [Compound 115, 4-(6-chloro-4-(6,6-difluoro-1,4-oxazepan-4-yl)-8-fluoro-2-((tetrahydro-1H-pyrrol-izin-7a(5H)-yl)methoxy)-quinazolin-7-yl)-7-fluoro-benzo[d]thiazol-2-amine], for which the IC50 (on wildtype Kras / hSOS1 (setting [2]); in test [1] (setting [2])) was below 500 nM in each case.
In the case of `NCC1C2CCC1CN(c1nc(OCC34CCCN3CCC4)nc3c(F)c(-c4ccc(F)c5sc(N)nc45)c(Cl)cc13)C2` [Compound 406, 4-(4-((1R,5S,8r)-8-(amino-methyl)-3-azabicyclo[3.2.1]-octan-3-yl)-6-chloro-8-fluoro-2-((tetrahydro-1H-pyrrolizin-7a(5H)-yl)meth-oxy)quinazolin-7-yl)-7-fluorobenzo[d]thiazol-2-amine], the half-inhibitory concentration (IC50) (on wildtype Kras / hSOS1 (compound nos. 401-703); in test [1] (compound nos. 401-703)) was below 500 nM throughout.
Take `Nc1nc2c(-c3cc4nc(OCC56CCCN5CCC6)nc(N5CC6CCC(C5)N6)c4cc3Cl)ccc(F)c2s1` [Compound 591, 4-(4-(3,8-diazabicyclo-[3.2.1]octan-3-yl)-6-chloro-2-((tetrahydro-1H-pyrrol-izin-7a(5H)-yl)methoxy)-quinazolin-7-yl)-7-fluoro-benzo[d]thiazol-2-amine]: the IC50 at wildtype Kras / hSOS1 (compound nos. 401-703) was above 500 nM; in test [1] (compound nos. 401-703) it was below 500 nM.
For `CN1CCC[C@H]1COc1nc(N2CCCC(Cl)CC2)c2cc(Cl)c(-c3cccc4sc(N)nc34)c(F)c2n1` (stereo partly drawn) [Compound 593, 4-(6-chloro-4-(4-chloro-azepan-1-yl)-8-fluoro-2-(((S)-1-methylpyrrolidin-2-yl)methoxy)quinazolin-7-yl)benzo[d]thiazol-2-amine] the same measures were above 500 nM and below 500 nM.
For the compound `Cc1ccc2oc(N)nc2c1-c1c(Cl)cc2c(N3CC4CCC(C3)N4)nc(OC[C@@]34CCCN3C[C@H](F)C4)nc2c1F` [Compound 546, 4-(4-(3,8-diazabicyclo-[3.2.1]octan-3-yl)-6-chloro-8-fluoro-2-(((2R,7aS)-2-fluorotetrahydro-1H-pyrrol-izin-7a(5H)-yl)methoxy)-quinazolin-7-yl)-5-methyl-benzo[d]oxazol-2-amine], the half-maximal inhibitory concentration (IC50) on wildtype Kras / hSOS1 (compound nos. 401-703) was above 500 nM; in test [1] (compound nos. 401-703), below 500 nM.
In the case of `CO[C@H]1C[C@@H](COc2nc(N3CCNCC(F)(F)C3)c3cc(Cl)c(-c4cccc5sc(N)nc45)c(F)c3n2)N(C)C1` [Compound 126, 4-(6-chloro-4-(6,6-difluoro-1,4-diazepan-1-yl)-8-fluoro-2-(((2S,4S)-4-methoxy-1-methylpyrrolidin-2-yl)-methoxy)quinazolin-7-yl)-benzo[d]thiazol-2-amine], the figures for the IC50 (at wildtype Kras / hSOS1 (setting [2]); in test [1] (setting [2])) were below 500 nM and above 500 nM, respectively.
Consider `N#Cc1c(N)sc2c(F)ccc(-c3c(Cl)cc4c(N5CC6CCC(C5)O6)nc(OC[C@@]56CCCN5C[C@H](F)C6)nc4c3F)c12` [Compound 583, 4-(4-(8-oxa-3-azabicyclo-[3.2.1]-octan-3-yl)-6-chloro-8-fluoro-2-(((2R,7aS)-2-fluorotetrahydro-1H-pyrrol-izin-7a(5H)-yl)methoxy)-quinazolin-7-yl)-2-amino-7-fluorobenzo[b]thiophene-3-carbonitrile], for which the IC50 on wildtype Kras / hSOS1 (compound nos. 401-703) was above 500 nM; in test [1] (compound nos. 401-703) it was below 500 nM.
In the same order, the values of `Nc1cc(-c2ccc3c(N4CC5CCC(C4)N5)nc(OCC45CCCN4CCC5)nc3c2F)c2c(Cl)cccc2n1` [Compound 498, 4-(4-(3,8-diazabicyclo-[3.2.1]octan-3-yl)-8-fluoro-2-((tetrahydro-1H-pyrrol-izin-7a(5H)-yl)methoxy)-quinazolin-7-yl)-5-chloro-quinolin-2-amine] are below 500 nM and above 500 nM.
For `CN1CCC[C@H]1COc1nc(N2CCCC(NS(=O)(=O)C3CC3)CC2)c2cc(Cl)c(-c3cccc4sc(N)nc34)c(F)c2n1` (stereo partly drawn) [Compound 472, N-(1-(7-(2-aminobenzo[d]-thiazol-4-yl)-6-chloro-8-fluoro-2-(((S)-1-methylpyr-rolidin-2-yl)methoxy)quin-azolin-4-yl)azepan-4-yl)-cyclopropanesulfonamide] the same measures were below 500 nM and below 500 nM.
As for `CNCCN1[C@@H]2CC[C@H]1CN(c1nc(OCC34CCCN3CCC4)nc3c(F)c(-c4ccc(F)c5sc(N)nc45)c(Cl)cc13)C2` [Compound 656, 4-(6-chloro-8-fluoro-4-((1R,5S)-8-(2-(methyl-amino)-ethyl)-3,8-diaza-bicyclo[3.2.1]octan-3-yl)-2-((tetrahydro-1H-pyrrol-izin-7a(5H)-yl)methoxy)-quinazolin-7-yl)-7-fluoro-benzo[d]thiazol-2-amine], the values for the IC50 (on wildtype Kras / hSOS1 (compound nos. 401-703); in test [1] (compound nos. 401-703)) were above 500 nM and below 500 nM, respectively.
`Nc1nc2c(-c3c(Cl)cc4c(N5CCCCC(F)(F)C5)nc(OC[C@@]56CCCN5C[C@H](F)C6)nc4c3F)ccc(F)c2s1` [Compound 168, 4-(6-chloro-4-(3,3-difluoro-azepan-1-yl)-8-fluoro-2-(((2R,7aS)-2-fluorotetra-hydro-1H-pyrrolizin-7a(5H)-yl)methoxy)quinazolin-7-yl)-7-fluorobenzo[d]thiazol-2-amine]: the 50% inhibitory concentration (IC50) (on wildtype Kras / hSOS1 (setting [2]); in test [1] (setting [2])) was below 500 nM in each case.
Consider `Nc1nc2c(-c3c(Cl)cc4c(N5CCNCC(F)(F)C5)nc(OCC56CCCN5CCC6)nc4c3F)c(F)ccc2s1` [Compound 633, 4-(6-chloro-4-(6,6-difluoro-1,4-diazepan-1-yl)-8-fluoro-2-((tetrahydro-1H-pyrrol-izin-7a(5H)-yl)methoxy)-quinazolin-7-yl)-5-fluoro-benzo[d]thiazol-2-amine], for which the 50% inhibitory concentration (IC50) at wildtype Kras / hSOS1 (compound nos. 401-703) is above 500 nM; in test [1] (compound nos. 401-703), below 500 nM.
On to `CN1CCC[C@H]1COc1nc(N2CCNCC(F)(F)C2)c2cc(Cl)c(-c3cccc4nc(O)oc34)c(F)c2n1` [Compound 169, 7-(6-chloro-4-(6,6-difluoro-1,4-diazepan-1-yl)-8-fluoro-2-(((S)-1-methylpyrrolidin-2-yl)methoxy)quinazolin-7-yl)benzo[d]oxazol-2-ol], for which the half-maximal inhibitory concentration (IC50) (on wildtype Kras / hSOS1 (setting [2]); in test [1] (setting [2])) was above 500 nM each time.
Regarding `Nc1nc2c(-c3c(Cl)cc4c(N5C[C@H]6CCNCC[C@H]6C5)nc(OC[C@@]56CCCN5C[C@H](F)C6)nc4c3F)ccc(F)c2s1` [Compound 528, 4-(6-chloro-8-fluoro-2-(((2R,7aS)-2-fluorotetra-hydro-1H-pyrrolizin-7a(5H)-yl)methoxy)-4-((3aR,8aS)-octahydropyr-rolo[3,4-d]azepin-2(1H)-yl)quinazolin-7-yl)-7-fluorobenzo[d]thiazol-2-amine], the results for the IC50 (at wildtype Kras / hSOS1 (compound nos. 401-703); in test [1] (compound nos. 401-703)) were above 500 nM and below 500 nM, respectively.
`CN1CCC[C@H]1COc1nc(N2CCNCC(C)(C)C2)c2cc(Cl)c(-c3cccc4sc(N)nc34)c(F)c2n1` [Compound 118, 4-(6-chloro-4-(6,6-dimethyl-1,4-diazepan-1-yl)-8-fluoro-2-(((S)-1-methylpyrrolidin-2-yl)methoxy)quinazolin-7-yl)benzo[d]thiazol-2-amine]: the IC50 (on wildtype Kras / hSOS1 (setting [2]); in test [1] (setting [2])) was above 500 nM each time.
On to `Nc1nc2c(-c3c(Cl)cc4c(N5CCCCCC5)nc(OCC5(CN6CCCC6)CC5)nc4c3F)ccc(F)c2s1` [Compound 677, 4-(4-(azepan-1-yl)-6-chloro-8-fluoro-2-((1-(pyrrolidin-1-ylmethyl)cyclopropyl)meth-oxy)quinazolin-7-yl)-7-fluorobenzo[d]thiazol-2-amine], for which the IC50 on wildtype Kras / hSOS1 (compound nos. 401-703) was above 500 nM; in test [1] (compound nos. 401-703) it was below 500 nM.
In the same order, the values of `N#Cc1c(N)sc2c(F)ccc(-c3c(Cl)cc4c(N5CC6CCC(C5)N6)nc(OC[C@@]56CCCN5C[C@H](F)C6)nc4c3F)c12` [Compound 638, 4-(4-(3,8-diazabicyclo-[3.2.1]octan-3-yl)-6-chloro-8-fluoro-2-(((2R,7aS)-2-fluorotetrahydro-1H-pyrrol-izin-7a(5H)-yl)methoxy)-quinazolin-7-yl)-2-amino-7-fluorobenzo[b]thiophene-3-carbonitrile] are above 500 nM and below 500 nM.
In the same order, the values of `Nc1nc2c(-c3ccc4c(N5C[C@H]6CCNCC[C@H]6C5)nc(OC[C@@]56CCCN5C[C@H](F)C6)nc4c3F)ccc(F)c2s1` [Compound 408, 7-fluoro-4-(8-fluoro-2-(((2R,7aS)-2-fluorotetra-hydro-1H-pyrrolizin-7a(5H)-yl)methoxy)-4-((3aR,8aS)-octahydropyrrolo[3,4-d]-azepin-2(1H)-yl)quinazolin-7-yl)benzo[d]thiazol-2-amine] are below 500 nM and above 500 nM.
Regarding `Nc1nc2c(-c3c(Cl)cc4c(N5CC6CCC(C5)N6)nc(OC[C@@]56CCCN5C[C@H](F)C6)nc4c3F)cccc2o1` [Compound 204, 4-(4-((1R,5S)-3,8-diaza-bicyclo[3.2.1]octan-3-yl)-6-chloro-8-fluoro-2-(((2R,7aS)-2-fluorotetra-hydro-1H-pyrrolizin-7a(5H)-yl)methoxy)quin-azolin-7-yl)benzo[d]-oxazol-2-amine], the IC50 (at wildtype Kras / hSOS1 (setting [3]); in test [1] (setting [3])) was below 1500 nM each time.
For the compound `O=C(c1cc(O)cc2ccccc12)N1CCc2nc(OCC34CCCN3CCC4)nc(N3CC4CCC(C3)N4)c2CC1` [Compound 694, (4-(3,8-diazabicyclo[3.2.1]-octan-3-yl)-2-((tetrahydro-1H-pyrrolizin-7a(5H)-yl)-methoxy)-5,6,8,9-tetrahydro-7H-pyrimido[4,5-d]azepin-7-yl)(3-hydroxynaphthalen-1-yl)methanone], the IC50 (at wildtype Kras / hSOS1 (compound nos. 401-703); in test [1] (compound nos. 401-703)) was above 500 nM in each case.

The values above are taken from patent US20240254129A1, “HETEROCYCLIC COMPOUNDS AND USES THEREOF” (Kumquat Biosciences Inc., priority 2021, published 2024).
